Assay results taken from patent US20090305321A1, “Assays for Allosteric Modulators of G-Protein Coupled Receptors (GPCRs)” (ASTRAZENECA AB, priority 2005, published 2009).

What was measured:
[1] = target: T1, human Chemokine receptor CXCR2 (Homo sapiens, UniProt P25025); experiment: CXCR2 membrane [125I]IL-8 radioligand binding assay; conditions: FIG. 2
T1 construct: expressed in transfected cells
T1 sequence (P25025 1-360): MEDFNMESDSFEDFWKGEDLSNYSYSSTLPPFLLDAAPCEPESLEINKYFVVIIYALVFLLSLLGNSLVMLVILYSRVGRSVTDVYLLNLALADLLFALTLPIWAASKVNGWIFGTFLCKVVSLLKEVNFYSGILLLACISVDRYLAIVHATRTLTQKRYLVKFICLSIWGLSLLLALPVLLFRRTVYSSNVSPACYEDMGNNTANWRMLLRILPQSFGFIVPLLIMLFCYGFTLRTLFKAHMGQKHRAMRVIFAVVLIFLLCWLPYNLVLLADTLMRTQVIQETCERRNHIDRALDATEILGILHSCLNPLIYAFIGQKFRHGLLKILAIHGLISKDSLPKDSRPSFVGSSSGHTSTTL
Method: HEK 293 cells were transfected with CXCR2 receptor using the lipofection reagent Fugene 6 (Roche). […] Stable HEK-CXCR2 transfectants were grown to approximately 80% confluence in 10-layer cell factories in DMEM medium containing 10% (v/v) foetal calf serum and glutamine (2 mM) in a humidified incubator at 37° C., 5% CO2. Cells were harvested from the flask using Accutase at 37° C. for 3 to 5 minutes.
Cells were resuspended on ice in 60 mL hypotonic buffer at a density of 2×10^7 cells/mL. Membranes were prepared on ice by homogenisaton using a polytron tissue homogenizer set at 22000 rpm. The membrane preparation was purified by sucrose gradient centrifugation. In each of 4 centrifuge tubes 15 mL of cell membranes was layered onto 10 mL 41% (w/v) sucrose solution and the tubes centrifuged at 140000 g for 1 hour at 4° C. […]
Following incubation, the plate containing the assay mixture was filter-washed with 200 μL cold HEPES-buffered salt solution using a Millipore vacuum manifold. The filtration plate was allowed to air dry then either the individual filters were punched out into polypropylene test tubes and the radioactivity measured by direct gamma counting using a Cobra II Gamma counter (Packard BioScience) for 1 minute per sample or alternatively, the whole filtration plate was placed in a carrier plate and 50 μL of MicroScint-O added to each well. […]

CXCR2 [2] = target: T2, CXCR2 (Homo sapiens, UniProt P25025); experiment: HEK FLIPR intracellular calcium assay, wild type CXCR2; type: cell-based; conditions: Compound A 30 nM (10 nM and 30 nM in Example 5), Compound B 100 nM
T2 construct: expressed in transfected cells
T2 sequence (P25025 1-360): T1 sequence (P25025 1-360)
Method: HEK cells, transfected with the human recombinant CXCR2 receptor, were grown to approximately 80% confluence in 225 cm^2 flasks in DMEM-Glutamax medium containing, non-essential amino acids, 10% (v/v) FCS in a humidified incubator at 37° C., 5% CO2. Cells were harvested from the flask using 10× trypsin at 37° C. for 1 to 2 minutes.
(§1) All points were reproduced in triplicate on each plate.

CXCR1 = target: T3, CXCR1 (Homo sapiens, UniProt P25024); experiment: Chemokine receptor panel (assays similar to Example 1 and 2), CXCR1; type: binding
T3 sequence (P25024 1-350): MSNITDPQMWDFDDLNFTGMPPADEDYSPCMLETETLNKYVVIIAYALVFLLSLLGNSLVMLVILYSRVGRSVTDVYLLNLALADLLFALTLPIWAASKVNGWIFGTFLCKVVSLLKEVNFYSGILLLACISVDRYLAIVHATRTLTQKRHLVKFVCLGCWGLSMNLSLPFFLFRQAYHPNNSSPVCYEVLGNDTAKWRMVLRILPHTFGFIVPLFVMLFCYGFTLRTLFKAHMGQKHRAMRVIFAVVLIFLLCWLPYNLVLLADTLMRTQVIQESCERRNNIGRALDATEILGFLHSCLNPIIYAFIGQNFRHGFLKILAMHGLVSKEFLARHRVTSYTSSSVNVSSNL
Text: as §1

CCR4 = target: T4, CCR4 (Homo sapiens, UniProt P51679); experiment: Chemokine receptor panel (assays similar to Example 1 and 2), CCR4; type: binding
T4 sequence (P51679 1-360): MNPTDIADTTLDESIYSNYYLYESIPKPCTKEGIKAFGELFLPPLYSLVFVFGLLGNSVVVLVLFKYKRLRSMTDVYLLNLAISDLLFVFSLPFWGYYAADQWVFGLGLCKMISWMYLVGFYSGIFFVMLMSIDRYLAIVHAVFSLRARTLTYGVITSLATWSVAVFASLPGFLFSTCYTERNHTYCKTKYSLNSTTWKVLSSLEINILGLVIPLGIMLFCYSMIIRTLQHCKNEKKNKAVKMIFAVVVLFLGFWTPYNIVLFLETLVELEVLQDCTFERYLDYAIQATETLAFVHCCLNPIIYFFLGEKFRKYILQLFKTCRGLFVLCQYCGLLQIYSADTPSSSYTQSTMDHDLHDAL
Method: (§2) Membranes (80 μL of 1×10^6 cell equivalents/mL) were then added, giving a total incubation volume of 100 μL per well. The plates were incubated for 2 hours at room temperature.
(§3) HEK 293 transfectants were seeded at 5×10^4 cells per well in 96 well poly-D lysine coated black with clear bottom plates (Becton Dickinson) and cultured for 16 h at 37° C. with an atmosphere of 5% CO2/95% air to form confluent monolayers. The following day cells were loaded with 5 μM Flura 3 AM diluted in tyrodes solution (137 mM NaCl, 10 mM HEPES, 0.441 mM KH2PO4, 2.67 mM KCl, 1.8 mM CaCL2, 1 mM MgCl2) with 6.25 mM probenecid at pH7.4, 100 μl per well and incubated at 37° C. with an atmosphere of 5% CO2/95% air for 1 h. After which the loading media was removed and the cells washed twice with PBS/HEPES solution (100 μl per well) then overlayed with 50 μl assay buffer (tyrodes buffer without probenecid). 50 μl inhibitor compound or 50 μl 0.2% (v/v) DMSO carrier diluted in assay buffer was then added per well and incubated for 30 minutes at room temperature before the addition of 50 μl 3 mM Carbachol per well. Calcium flux responses were measured using a Fluorometric Imaging Plate Reader (Molecular Devices) for 3 minutes before the addition of either IL-8 (50 μl, 1×10^−7-3×10^−11 M final concentration) or GROalpha. […] Fluorescence readings were taken every 2 seconds for a total run time of 6 minutes.

[3] = target: T5, GST-CXCR2 fusion protein (human CXCR2 residues G318 to L360) (Homo sapiens, UniProt P25025); experiment: [3H]Compound A radioligand binding to GST-CXCR2 C terminal tail; conditions: 20 nM [3H]Compound A, FIG. 21, average of three experiments
T5 construct: made in house; host or cells: E. coli
Method: An expression construct which encodes for S. Japonicum glutathione-S-transferase (GST) fused to the last 43 amino acids of human CXCR2 (residues G318 to L360) was generated by standard molecular biological techniques.
The protein was expressed in E. coli and the resulting fusion protein was purified from the cell extract via chromatography using a 5 ml GSTrap column (Amersham) which binds GST containing proteins, and eluted using 10 mM reduced glutathione in the elution buffer. At the same time GST without a CXCR2 C-terminal tail was also expressed and purified as a control. Both proteins had the excess 10 mM glutathione removed using a XK26/10 desalting column (Amersham).
Protein solutions (50 μL dilutions starting at 1.28 mg/ml) of either GST-CXCR2 fusion or wild type GST were then added, giving a total incubation volume of 200 μL per well.
A GF-B filter plate was set up containing 50 μl of 1 mg/ml gelatine in PBS in each well, which was then filtered through the plate and discarded. […] After filtering, 100 μl filtrate was transferred to a lumaplate and dried down in a 50° C. oven overnight and then counted on the TopCount instrument (Packard BioScience)

CX3CR1 = target: T6, CX3CR1 (Homo sapiens, UniProt P49238); experiment: biochemical
T6 sequence (P49238 1-355): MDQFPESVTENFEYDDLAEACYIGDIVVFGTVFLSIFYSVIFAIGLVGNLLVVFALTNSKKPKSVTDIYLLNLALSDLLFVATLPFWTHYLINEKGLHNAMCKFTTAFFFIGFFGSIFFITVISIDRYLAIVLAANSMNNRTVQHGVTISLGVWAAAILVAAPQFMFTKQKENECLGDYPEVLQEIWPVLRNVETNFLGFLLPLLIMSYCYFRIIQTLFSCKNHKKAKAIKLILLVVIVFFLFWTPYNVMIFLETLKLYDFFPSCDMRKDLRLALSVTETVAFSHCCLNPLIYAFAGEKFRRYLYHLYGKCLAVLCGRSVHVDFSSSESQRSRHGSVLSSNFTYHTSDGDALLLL

CCR5 = CCR5 (Homo sapiens, UniProt P51681); experiment: Chemokine receptor panel (assays similar to Example 1 and 2), CCR5; type: binding; conditions: CCR5, 10 uM
Method: as §2, §3

wild type GST = target: T7, wild type GST (Schistosoma japonicum, UniProt P08515); experiment: [3H]Compound A radioligand binding to wild type GST control; conditions: 20 nM [3H]Compound A; FIG. 21, average of three experiments
T7 construct: made in house; host or cells: E. coli
Method: Protein solutions (50 μL dilutions starting at 1.28 mg/ml) of either GST-CXCR2 fusion or wild type GST were then added, giving a total incubation volume of 200 μL per well. The plates were incubated for 2 hours at room temperature.
A GF-B filter plate was set up containing 50 μl of 1 mg/ml gelatine in PBS in each well, which was then filtered through the plate and discarded. 100 μl filter mix (160 mg/ml charcoal (dextran coated) in PBS containing 1 mg/ml gelatine) was then filtered through the plate and then 150 μl assay mix was then filtered through the prepared filter plate (The charcoal catches the excess un-bound compound). After filtering, 100 μl filtrate was transferred to a lumaplate and dried down in a 50° C. oven overnight and then counted on the TopCount instrument (Packard BioScience)

CCR1 = target: T8, CCR1 (Homo sapiens, UniProt P32246); experiment: Chemokine receptor panel (assays similar to Example 1 and 2), CCR1; type: binding; conditions: CCR1, 10 uM
T8 sequence (P32246 1-355): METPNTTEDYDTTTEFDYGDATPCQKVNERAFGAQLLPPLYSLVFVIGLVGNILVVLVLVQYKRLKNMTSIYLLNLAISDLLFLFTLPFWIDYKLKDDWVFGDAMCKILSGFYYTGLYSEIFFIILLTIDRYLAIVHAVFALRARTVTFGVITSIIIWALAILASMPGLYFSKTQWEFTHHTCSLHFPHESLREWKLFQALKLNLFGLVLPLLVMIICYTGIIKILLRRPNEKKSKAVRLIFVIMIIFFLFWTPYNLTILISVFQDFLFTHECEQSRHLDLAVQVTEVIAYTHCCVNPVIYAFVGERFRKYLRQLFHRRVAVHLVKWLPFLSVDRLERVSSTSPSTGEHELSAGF

CCR2b = target: T9, CCR2b (Homo sapiens, UniProt P41597); experiment: Chemokine receptor panel (assays similar to Example 1 and 2), CCR2b; type: binding
T9 sequence (P41597 1-360 isoform P41597-2): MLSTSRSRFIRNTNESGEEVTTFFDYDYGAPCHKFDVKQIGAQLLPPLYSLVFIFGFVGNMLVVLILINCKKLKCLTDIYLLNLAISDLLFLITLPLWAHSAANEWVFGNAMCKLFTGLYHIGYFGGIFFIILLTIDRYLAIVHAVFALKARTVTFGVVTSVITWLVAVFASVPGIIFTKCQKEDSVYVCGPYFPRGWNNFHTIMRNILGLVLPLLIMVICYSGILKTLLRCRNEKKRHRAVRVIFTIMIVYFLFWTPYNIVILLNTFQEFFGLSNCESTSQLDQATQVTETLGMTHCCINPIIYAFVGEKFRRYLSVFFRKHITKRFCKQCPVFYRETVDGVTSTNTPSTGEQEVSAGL

CXCR2 [4] = target: T2, CXCR2; experiment: [3H]-Compound C binding assay on CXCR2 membranes; conditions: 20 nM [3H]Compound C, FIG. 3
Method: Following incubation, the plate containing the assay mixture was transferred to GF-B plates and filter-washed with cold HEPES-buffered salt solution using a Tomtec harvester. The filtration plate was allowed to air dry then 20 μl of MicroScint-0 added to each well. 96-well plate scintillation counting was performed using a TopCount instrument (Packard BioScience) for 1 minute per sample well.

T7 sequence (P08515 whole entry): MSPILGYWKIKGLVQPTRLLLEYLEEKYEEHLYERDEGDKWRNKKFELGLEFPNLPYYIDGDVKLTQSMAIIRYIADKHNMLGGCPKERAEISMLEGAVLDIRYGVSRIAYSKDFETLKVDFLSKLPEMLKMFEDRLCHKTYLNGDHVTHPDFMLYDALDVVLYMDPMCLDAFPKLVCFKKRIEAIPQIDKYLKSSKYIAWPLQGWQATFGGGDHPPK
T5 sequence (P25025 with tags, fused parts or gaps): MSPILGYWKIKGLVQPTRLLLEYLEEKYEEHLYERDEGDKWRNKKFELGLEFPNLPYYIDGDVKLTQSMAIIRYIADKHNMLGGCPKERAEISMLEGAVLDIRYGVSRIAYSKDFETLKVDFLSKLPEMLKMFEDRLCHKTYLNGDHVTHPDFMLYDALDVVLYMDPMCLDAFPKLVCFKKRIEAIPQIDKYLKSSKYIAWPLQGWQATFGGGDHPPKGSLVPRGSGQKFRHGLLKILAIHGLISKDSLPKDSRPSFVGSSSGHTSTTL
Chain of CCR5 (P51681 whole entry): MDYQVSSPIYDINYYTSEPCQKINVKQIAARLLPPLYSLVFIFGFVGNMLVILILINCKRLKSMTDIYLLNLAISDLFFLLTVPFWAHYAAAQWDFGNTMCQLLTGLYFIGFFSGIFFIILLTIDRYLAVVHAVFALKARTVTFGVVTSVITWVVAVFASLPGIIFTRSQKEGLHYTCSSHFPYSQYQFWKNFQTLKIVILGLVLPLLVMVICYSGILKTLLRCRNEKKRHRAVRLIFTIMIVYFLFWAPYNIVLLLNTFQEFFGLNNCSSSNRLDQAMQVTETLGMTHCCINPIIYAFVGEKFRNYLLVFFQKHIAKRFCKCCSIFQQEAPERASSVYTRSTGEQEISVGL

“IL-8: C-X-C chemokine, endogenous CXCR2/CXCR1 agonist ligand; non-radioactive IL-8 used as competitor” was tested, and the “inhibition of [125I]-IL-8 binding” value [1] was “able to inhibit the binding”.
In the case of NS(=O)(=O)c1c(Cl)ccc(NC(=O)Nc2cccc(Cl)c2Cl)c1O [Compound B], the “activity (inhibition of IL-8-induced calcium release)” value (CXCR2 [2]) is reported as “active against CXCR2”.
For C[C@H](CO)Nc1nc(SCc2cccc(Cl)c2F)nc2[nH]c(=O)sc12 [Compound A], the IC50 (CXCR1) was 251 nM, the IC50 (CCR4) was 7940 nM and the “radiolabelled binding to GST-CXCR2 fusion protein on addition of excess cold compound” value [3] was “decrease in radiolabelled binding”. The IC50 (CX3CR1) was 251 nM, the “activity (inhibition of IL-8-induced calcium release)” value (CXCR2 [2]) was “active against CXCR2” and the inhibition at 10 µM (CCR5) was 72%. For the same compound, the “compound binding to wild type GST control protein” value (wild type GST) was “minimal compound binding”, the inhibition at 10 µM (CCR1) was 62% and the IC50 (CCR2b) was 158 nM.
For C[C@H](CO)Nc1nc(SCc2ccccc2)nc2nc(N)sc12 [Compound C], the “binding to CXCR2 / displacement of radio-labelled Compound C” value (CXCR2 [4]) was “can bind to CXCR2” and the “inhibition of [125I]-IL-8 binding” value [1] was “able to inhibit the binding”.
